Common to all, as to assay: DTP human tumour cell line panel, 48 h
In assay [1] the test system is SNB-19 CNS.
The subject of assay [2] is SF-539 CNS.
In assay [3] the test system is SF-295 CNS.
Assay [4] concerns U251 CNS.
Assay [5] concerns MOLT-4 leukemia.
The subject of assay [6] is HCT-116 colon.
Assay [7] has as its system CCRF-CEM leukemia.
Assay [8] deals with SK-MEL-28 melanoma.
Assay [9] deals with SK-MEL-5 melanoma.
For assay [10], the system named is MDA-MB-435.

Molecules are shown by their SMILES.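 96-well plates; 48 h exposure; 5 concentrations. Endpoints by linear interpolation between flanking doses. Not reached: highest tested concentration assigned. At the GI50, growth is halved. TGI denotes the concentration required for complete inhibition of growth.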

Data on 27 compounds can be found in PubChem BioAssay (NCI).

Turning to `COC(c1cccc(C(O)(C(F)(F)F)C(F)(F)F)c1)(C(F)(F)F)C(F)(F)F`, the TGI (usually the concentration at which net growth stops) in assay [1] was 34.5 µM; in [2], 33.3 µM; in assay [3], 30.2 µM; in [4] it was 33.9 µM; in [5] it was 40.5 µM; in assay [6] it was 31 µM.
As for `O=C(C=Nc1ccccc1C(=O)[O-])c1cccs1.O=C(C=Nc1ccccc1C(=O)[O-])c1cccs1.[Co+2]`, the TGI in [7], in [1], in assay [2], in assay [3], in assay [4] and in assay [8] was more than 100 µM throughout. The TGI in [5] and in assay [6] was more than 100 µM each time.
`C=C(C)C1Cc2c(cc(OC)c3c(=O)c4cccc(O)c4oc23)O1` (stereo unspecified): the total growth inhibition concentration (TGI) is more than 100 µM in [7]; 98.4 µM in assay [1]; 32.3 µM in assay [2]; 41.6 µM in assay [3]; 30.1 µM in assay [9]; 34.8 µM in assay [4]. Further, the total growth inhibition concentration (TGI) is 72 µM in assay [8], more than 100 µM in assay [5] and 39.4 µM in assay [6].
As for `O=C(O)C1=CCCc2ccc3ccccc3c21`, the TGI in assay [1], in assay [2], in [3], in [4], in assay [8] and in assay [5] was more than 100 µM in each case. The compound also displayed a TGI in assay [6] of more than 100 µM.
With `CCN(CC)CCCn1cnc2ncccc2c1=O`, the total growth inhibition concentration (TGI) in assay [7], in assay [1], in assay [2], in assay [3], in [9] and in assay [4] was more than 100 µM each time. Further, the TGI in assay [8] and in [6] was more than 100 µM each time.
As for `c1ccc2c(c1)sc1c3cnccc3ccc21`, the TGI in assay [10], in [1], in assay [2], in assay [3], in [9] and in assay [4] was more than 100 µM in each case. Further, the total growth inhibition concentration (TGI) in assay [8], in [5] and in [6] was more than 100 µM each time.
Consider `CC(=O)Oc1cc(C)c2c(c1OC(C)=O)CC1(O2)[C@@H](C)CCC2[C@@]3(C)CC[C@H](OC(C)=O)C(C)(C)C3CC[C@]21C` (stereo partly specified), for which the TGI stood at 29.8 µM in [1]; 7.23 µM in assay [2]; 16.2 µM in assay [3]; 10.7 µM in assay [9]; 14.4 µM in [4]; 15.9 µM in assay [8]. Moreover, the figures for the TGI in assay [5] and in [6] were 42.2 µM and 13.3 µM, respectively.
For `C/C(=N\NC(N)=S)c1cc(C)c(C)cc1C`, the TGI in [7], in assay [2], in [3], in assay [9], in assay [4] and in assay [8] was more than 100 µM each time. Besides, the total growth inhibition concentration (TGI) in assay [5] was 84.5 µM; in [6] it was more than 100 µM.
Consider `Nc1nc(N)c(Cn2ccnc2)c(=O)[nH]1`, for which the TGI in [10], in assay [1], in assay [2], in [3], in assay [9] and in assay [4] was more than 100 µM throughout. Further, the total growth inhibition concentration (TGI) in assay [6] was more than 100 µM.
With `O=C(CCC(=O)Nc1cccc(Cl)c1)CC(=O)c1ccc(F)cc1`, the total growth inhibition concentration (TGI) in assay [1] is more than 100 µM; in assay [2], more than 100 µM; in [3] it was 61.2 µM; in assay [8], more than 100 µM; in assay [5], more than 100 µM; in assay [6], more than 100 µM.
Consider `[Cl][Sn]([Cl])([c]1ccccc1)[c]1ccccc1`, for which the GI50 (commonly the concentration giving 50% growth inhibition) in [7] is 1.74 µM; in assay [1], 14.6 µM; in [2], 16 µM; in [3], 17 µM; in assay [9], 12.2 µM; in assay [4] it was 13.4 µM. Besides, the figures for the GI50 in assay [8] and in assay [5] were 2.43 µM and 5.25 µM, respectively. In addition, the total growth inhibition concentration (TGI) in assay [7] worked out at 5.76 µM; in assay [1] it was 27.7 µM; in [2], 29.4 µM; in [3], 33.5 µM; in [9] it was 26.9 µM; in assay [4] it was 28.6 µM. Further, the results for the TGI in assay [8] and in assay [5] were 6.53 µM and 36.9 µM, respectively.
For the compound `CSc1cccc(-n2c3nc(=O)n(C)c(=O)c-3nc3ccccc32)c1`, the total growth inhibition concentration (TGI) in assay [7] is 42.7 µM; in [1], 65.9 µM; in assay [2], 12.4 µM; in [3], 23.6 µM; in assay [9], 3.02 µM; in [4] it was 23.3 µM. The results for the TGI in [8] and in assay [5] were 37.3 µM and 32.3 µM, respectively.
On to `C#CCN(Cc1nc2cc(C(F)(F)F)ccc2nc1-c1ccccc1)c1ccc(OC(F)(F)F)cc1`, for which the GI50 is 39.4 µM in assay [10]; more than 100 µM in assay [1]; 20 µM in [2]; more than 100 µM in assay [3]; 34 µM in assay [9]; 48.8 µM in assay [4]. In addition, the GI50 in assay [8] is more than 100 µM; in assay [5] it was 32.2 µM; in assay [6], 25 µM. Moreover, the TGI in assay [10] was more than 100 µM; in assay [1], more than 100 µM; in [2], 41.2 µM; in [3], more than 100 µM; in [9], more than 100 µM; in assay [4], more than 100 µM. In addition, the TGI in assay [8], in assay [5] and in [6] was more than 100 µM in each case.
For `CCCCCCCC(=O)NCC(O)CNC(=O)CCCCCCC`, the TGI in assay [7], in [1], in assay [2], in assay [3], in assay [9] and in assay [4] was more than 100 µM in each case. Moreover, the TGI in assay [5] and in assay [6] was more than 100 µM in each case.
Regarding `CCOC(=O)c1c(-c2ccccc2)oc(-c2ccccc2)c1C(=O)OCC`, the concentration for total growth inhibition (TGI) in assay [7], in assay [1], in [2], in assay [3], in assay [9] and in [4] was more than 100 µM throughout. In addition, the TGI in [8], in assay [5] and in [6] was more than 100 µM each time.
Take `CCC1C(=O)OCc2c1cc1n(c2=O)Cc2cc3ccccc3nc2-1` (stereo unspecified): the TGI in assay [10] is more than 100 µM; in assay [1], more than 100 µM; in assay [2], 5.67 µM; in assay [3], more than 33.7 µM; in [9] it was 32.1 µM; in assay [4] it was more than 43 µM. The concentration for total growth inhibition (TGI) was more than 100 µM in assay [8], more than 22 µM in assay [5] and more than 100 µM in assay [6].
`Cc1oc2c(C)c3oc(=O)cc(C)c3cc2c1CNC(=O)[C@@H]1OCCOCCOCCOCCOCCOC1C(=O)O` (stereo partly specified): the TGI in assay [7], in assay [1], in assay [2], in [3], in [9] and in [4] was more than 100 µM each time. Besides, the total growth inhibition concentration (TGI) in [5] and in assay [6] was more than 100 µM in each case.
Regarding `O=c1c2ccccc2c(Br)c(Br)c2ccccc12`, the GI50 in assay [10] is 4.56 µM; in assay [1] it was 45.4 µM; in assay [2] it was 13.3 µM; in assay [3], 17.1 µM; in assay [9], 13.6 µM; in [4] it was 12.6 µM. Also, the GI50 in assay [8] is 24.9 µM; in [6], 4.92 µM. Moreover, the TGI is 21 µM in assay [10]; more than 100 µM in assay [1]; 37.2 µM in assay [2]; 36 µM in assay [3]; 31.6 µM in assay [9]; 29 µM in [4]. Besides, the results for the concentration for total growth inhibition (TGI) in assay [8] and in assay [6] were more than 100 µM and 29.3 µM, respectively.
`CC1(Cl)CC2OC3(Br)C=CC(C)(O)C2(CC1Br)C3(C)C` (stereo unspecified): the total growth inhibition concentration (TGI) in assay [7], in [1], in assay [2], in assay [3], in assay [9] and in assay [4] was more than 100 µM throughout. For the same compound, the TGI in assay [8], in [5] and in assay [6] was more than 100 µM in each case.
On to `COc1ccc2c(c1O)C13CCN(C)C(C2)C1CCC1(C3)OCCO1` (stereo unspecified), for which the TGI in assay [10], in [1], in assay [3], in assay [9], in [4] and in assay [8] was more than 100 µM throughout. The total growth inhibition concentration (TGI) in assay [5] and in assay [6] was more than 100 µM in each case.
Take `CC[O-].CC[O-].O=C([CH-]C(=O)c1cccnc1)c1ccccc1.O=C([CH-]C(=O)c1cccnc1)c1ccccc1.[Ti+4]`: the GI50 in assay [1] is 50 µM; in [2] it was 43.1 µM; in [3] it was 77.6 µM; in assay [9] it was more than 100 µM; in assay [4] it was 27.2 µM; in assay [8] it was more than 100 µM. Besides, the GI50 in [5] is 13.6 µM; in assay [6], more than 100 µM. The total growth inhibition concentration (TGI) in assay [1], in [2], in [3], in assay [9], in assay [4] and in [8] was more than 100 µM throughout. In addition, the TGI in assay [5] and in assay [6] was more than 100 µM throughout.
For `O=S(=O)(N/N=C/c1ccc(Cl)c(Cl)c1)c1ccccc1`, the total growth inhibition concentration (TGI) in assay [7], in assay [2], in assay [3], in assay [9], in assay [4] and in assay [8] was more than 100 µM in each case. The TGI in [5] is 84.4 µM; in assay [6] it was more than 100 µM.
Take `C/C=C/C1=C(Cl)C(=O)[C@@H](Cl)[C@@]1(O)C(=O)OC`: the TGI in assay [7] is more than 24 µM; in assay [1] it was 19.9 µM; in assay [2], 5.45 µM; in [3] it was 27.9 µM; in assay [9], 16.5 µM; in assay [4], 18.8 µM. Besides, the values for the TGI in assay [8], in assay [5] and in [6] were 14.2 µM, 12.9 µM and 11.7 µM, respectively.
As for `CC1=C(/C=C/C(=O)O)C(C)(C)CCC1`, the TGI in assay [10], in assay [1], in assay [2], in [3], in assay [9] and in assay [4] was more than 100 µM in each case. Further, the total growth inhibition concentration (TGI) in [8] and in assay [6] was more than 100 µM in each case.
With `CN(C)CCN(C)CC1COC(C)(C)O1` (stereo unspecified), the TGI in assay [7], in [1], in assay [2], in assay [3], in assay [9] and in [4] was more than 100 µM in each case. Further, the concentration for total growth inhibition (TGI) in [8], in [5] and in assay [6] was more than 100 µM in each case.
Turning to `CCOC(=O)c1sc2ncn(Cc3cccc(Br)c3)c(=O)c2c1C`, the GI50 in assay [10] is 54.1 µM; in assay [1] it was more than 100 µM; in assay [2] it was 84.5 µM; in assay [3], 64.9 µM; in assay [9], 25.7 µM; in assay [4], 31.7 µM. Moreover, the GI50 in [8] is 71.6 µM; in assay [5] it was 25.3 µM; in assay [6], 30.7 µM. The concentration for total growth inhibition (TGI) in [10] was more than 100 µM; in assay [1] it was more than 100 µM; in assay [2], more than 100 µM; in assay [3] it was more than 100 µM; in assay [9], 96 µM; in assay [4] it was more than 100 µM. For the same compound, the TGI in [8] was more than 100 µM; in [5] it was more than 100 µM; in assay [6], 93.8 µM.
For the compound `O=C1c2cccnc2C(=O)C2C3C=CC(C3)C12` (stereo unspecified), the TGI in assay [10] was 5.7 µM; in [1] it was 34.3 µM; in [2], 13.4 µM; in [3] it was 26.6 µM; in assay [9] it was 23.2 µM; in assay [4] it was 16.7 µM. For the same compound, the TGI was 39.3 µM in [8] and 14 µM in [6].
